# According to publication PMC7050258, “Inhibition of MGAT2 modulates fat‐induced gut peptide release and fat intake in normal mice and ameliorates obesity and diabetes in ob/ob mice fed on a high‐fat diet” (FEBS Open Bio, 2020):
# Values joined by “and” are separate entries in the source; they are usually repeats but may differ in a detail not shown here. Equal entries are not always repeated.
# What was measured:
# mouse MGAT2 = mouse MGAT2 (Mus musculus, UniProt Q80W94); experiment: in vitro inhibitory activity against MGAT2 (mouse); format: biochemical
# Experimental: CpdB, CpdA, and pioglitazone were synthesized at Takeda Pharmaceutical Co., Ltd. (Tokyo, Japan). The in vitro inhibitory activities of CpdB and CpdA against MGAT2 and related acyltransferases (DGAT1, DGAT2, and ACAT1) were evaluated as described in our previous report 17 and patent application 19. Liraglutide (Victoza) was purchased from Novo Nordisk Pharma Ltd. (Bagsvaerd, Denmark). All other chemicals were of analytical grade and purchased from Wako Pure Chemicals (Osaka, Japan).
# C57BL/6J mice [1] = experiment: Oral meal tolerance test (MTT), plasma chylomicron TG; format: in vivo, mouse; details: for Plasma CM/TG AUC (0-4 h), AVE: mean, N=6; for Plasma CM/TG AUC (0-4 h), individual animal: single animal values
# Experimental: Overnight‐fasted C57BL/6J mice underwent an MTT in the morning. Vehicle, CpdA (3, 10 mg·kg^−1), or Cpd B (3, 10 mg·kg^−1) was administered by gavage. The compound was suspended in 0.5% methylcellulose. […] Thirty minutes after injection, liquid meal (10 mL·kg^−1) comprising an admixture of corn oil and Ensure‐H (3 : 17 v/v) (Abbott Japan Co., Ltd., Tokyo, Japan) was orally loaded. Blood samples were collected preload (defined as 0 h) and 2 and 4 h after fat load, and plasma TG levels were measured. The area under the curve (AUC) of chylomicron TG (CM/TG), which is synthesized from dietary fat in the small intestine, was calculated by subtracting the plasma TG levels of the meal‐unloaded group from that of the meal‐loaded group.
# [2] = Pharmacokinetics of CpdB in mice; format: in vivo; details: C57BL/6J, mouse, plasma, 30 mg·kg^−1, 30 mg/kg single oral, mice fed an HFD, read-out: average plasma CpdB level 24 h after administration
# Experimental: Fifty‐four‐week‐old C57BL/6J mice fed an HFD (45% kcal fat, 4.7 kcal·g^−1; D12451; Research Diets, Inc., New Brunswick, NJ, USA) were given a single oral administration of CpdB (30 mg·kg^−1). Blood samples were collected at 0.25, 0.5, 1, 2, 4, 8, and 24 h after the administration. Concentration of plasma CpdB in each sample was measured using liquid chromatography with tandem mass spectrometry as described in our previous report 18.
# C57BL/6J mice [3] = experiment: Food choice test (HFD vs LFD); format: in vivo, mouse; details: overnight, CpdB 10 mg/kg oral, liraglutide 0.04 mg/kg sc
# Experimental: The choice between HFD (D12451; Research Diets, Inc.) and low‐fat diet (LFD, 10% kcal fat, 3.8 kcal·g^−1; D124510B; Research Diets, Inc.) was assessed in C57BL/6J mice. Following habituation to normal chow, HFD and LFD were presented in separate containers simultaneously, and overnight food intake of each diet was monitored. The mice were divided into groups based on the data of food intake and body weight. Then, vehicle or CpdB (10 mg·kg^−1) was orally administered, and the overnight food intake of each diet was monitored. CpdB was suspended in 0.5% methylcellulose. As a positive control, liraglutide (0.04 mg·kg^−1) dissolved in 10% DMSO/saline was subcutaneously administered.
# HFD-fed ob/ob mice = HFD-fed ob/ob mice study; format: in vivo, mouse
# Experimental: Male ob/ob mice were fed an HFD (D12451; Research Diets, Inc.) from 8 weeks of age to the end of the study. After 2 weeks of HFD feeding, the mice were divided into groups based on their body weight, food intake, glycated hemoglobin (GHb), and plasma biochemical parameters. […] Compounds were suspended in 0.5% methylcellulose. Body weight and food intake were monitored during the study. On day 34, blood was collected and GHb and plasma biochemical parameters were measured. In addition, body composition was analyzed by EchoMRI‐900 (Hitachi Aloka Medical, Ltd., Tokyo, Japan). On day 36, the mice in the vehicle‐ and CpdB‐treated group were individually placed in the metabolic chamber of an Oxymax system (Columbus Instruments, Columbus, OH, USA). After 3 h of adaptation, oxygen consumption (VO2) and carbon dioxide production (VCO2) were analyzed for 22 h (from 13:00 to 11:00). During the measurement, dosing of vehicle or CpdB was performed at 18:00. Respiratory quotient (RQ) and energy expenditure (EE) were calculated with the following formulas: RQ=VCO2/VO2 EEkcal/h=3.815+1.232×VCO2/VO2×VO2
# Blood samples were collected from the tail or facial vein without anesthesia and centrifuged at 1500 g for 10 min at 4 °C to isolate the plasma. To prevent degradation of incretin hormone, blood samples were treated with not only heparin/aprotinin but also a dipeptidyl peptidase‐4 (DPP‐4) inhibitor. Plasma alanine aminotransferase […] levels were measured by an Autoanalyzer 7180 (Hitachi High‐Technologies Corporation, Tokyo, Japan). GHb was measured with an automated GHb analyzer (HLC‐723G8; Tosoh, Tokyo, Japan). Plasma insulin was measured with an ELISA kit (Shibayagi Co., Ltd., Gunma, Japan). Plasma levels of total GLP‐1 and total PYY were also measured with an ELISA kit (Wako Pure Chemicals).
# [4] = CpdB 30 mg/kg, pioglitazone 3 mg/kg oral once daily, mean
# [5] = CpdB 30 mg/kg, pioglitazone 3 mg/kg oral once daily, single animal values
# [6] = EchoMRI, day 34, CpdB 30 mg/kg, pioglitazone 3 mg/kg, mean
# [7] = EchoMRI, day 34, CpdB 30 mg/kg, pioglitazone 3 mg/kg, single animal values
# [8] = dark phase, day 36, CpdB 30 mg/kg, mean
# [9] = dark phase, day 36, CpdB 30 mg/kg, single animal values
# [10] = day 34, CpdB 30 mg/kg, pioglitazone 3 mg/kg oral once daily, mean ± SD, n=8
# [11] = light phase, day 36, CpdB 30 mg/kg, mean
# [12] = light phase, day 36, CpdB 30 mg/kg, single animal values
# Chain of mouse MGAT2 (Q80W94 whole entry): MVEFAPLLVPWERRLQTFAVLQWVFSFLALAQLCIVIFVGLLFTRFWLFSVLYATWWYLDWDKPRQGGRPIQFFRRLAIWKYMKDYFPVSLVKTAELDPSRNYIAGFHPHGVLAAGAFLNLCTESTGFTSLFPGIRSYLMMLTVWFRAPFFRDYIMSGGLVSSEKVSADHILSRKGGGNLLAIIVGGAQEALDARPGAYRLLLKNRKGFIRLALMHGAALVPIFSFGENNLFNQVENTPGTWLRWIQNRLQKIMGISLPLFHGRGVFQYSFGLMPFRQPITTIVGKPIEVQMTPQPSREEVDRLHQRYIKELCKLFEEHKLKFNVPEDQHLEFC
structure (smiles),measurement,setting,value
CC(C)(OC(=O)N[C@H]1CC[C@H](OC(=O)N2CCc3cc(S(=O)(=O)Nc4c(F)cc(Cl)cc4F)cc(N4CCCC4=O)c32)CC1)C(F)(F)F [CpdB],IC50,mouse MGAT2,0.85 nM
same,"Plasma CM/TG AUC (0-4 h), AVE",C57BL/6J mice [1]; 3 mg/kg oral at -6.5 h,3977.6 mg/dLxh
same,"Plasma CM/TG AUC (0-4 h), individual animal",C57BL/6J mice [1]; 3 mg/kg oral at -6.5 h,3401.5 mg/dLxh and 5885.8 mg/dLxh and 3966.4 mg/dLxh and 3504.4 mg/dLxh and 3174.7 mg/dLxh and 3932.8 mg/dLxh
same,decrease of plasma CM/TG AUC compared with the vehicle group,C57BL/6J mice [1]; 10 mg/kg oral at -6.5 h,37%
same,"Plasma CM/TG AUC (0-4 h), AVE",C57BL/6J mice [1]; 10 mg/kg oral at -6.5 h,4365.7 mg/dLxh
same,"Plasma CM/TG AUC (0-4 h), individual animal",C57BL/6J mice [1]; 10 mg/kg oral at -6.5 h,5644.3 mg/dLxh and 4575.4 mg/dLxh and 4611.1 mg/dLxh and 3882.4 mg/dLxh and 3535.9 mg/dLxh and 3945.4 mg/dLxh
same,"Plasma CM/TG AUC (0-4 h), individual animal",C57BL/6J mice [1]; 10 mg/kg oral at -16.5 h,3845.1 mg/dLxh and 6306.3 mg/dLxh and 6722.1 mg/dLxh and 3383.1 mg/dLxh and 3918.6 mg/dLxh and 3231.9 mg/dLxh
same,"Plasma CM/TG AUC (0-4 h), AVE",C57BL/6J mice [1]; 10 mg/kg oral,4567.8 mg/dLxh
same,concentration at 24 h,[2],0.58 µM
same,"Food intake, energy intake of HFD, AVE","C57BL/6J mice [3]; mean, N=5",9.74 kcal
same,"Food intake, energy intake of low-fat diet, AVE","C57BL/6J mice [3]; mean, N=5",0.16 kcal
same,"Food intake, total energy intake, AVE","C57BL/6J mice [3]; mean, N=5",9.90 kcal
same,"Food intake, energy intake of HFD, individual animal",C57BL/6J mice [3]; single animal values,9.96 kcal and 11.47 kcal and 8.41 kcal and 8.88 kcal
same,"Food intake, energy intake of low-fat diet, individual animal",C57BL/6J mice [3]; single animal values,0.23 kcal and 0.00 kcal and 0.34 kcal
same,"Food intake, total energy intake, individual animal",C57BL/6J mice [3]; single animal values,10.19 kcal and 11.47 kcal and 8.41 kcal and 9.23 kcal
same,"Body weight change from initial, AVE",HFD-fed ob/ob mice; [4],16.96%
same,"Cumulative food intake, AVE",HFD-fed ob/ob mice; [4],119.28 g
same,"Body weight change from initial, individual animal",HFD-fed ob/ob mice; [5],14.99% and 19.62% and 18.91% and 14.63% and 13.72% and 24.18% and 12.96% and 16.65%
same,"Cumulative food intake, individual animal",HFD-fed ob/ob mice; [5],119.82 g and 117.97 g and 119.56 g and 119.18 g and 110.06 g and 129.88 g and 111.80 g and 125.96 g
same,"Body composition, Fat, AVE",HFD-fed ob/ob mice; [6],59.70%
same,"Body composition, Lean, AVE",HFD-fed ob/ob mice; [6],40.30%
same,"Body composition, Fat, individual animal",HFD-fed ob/ob mice; [7],63.06% and 55.96% and 61.22% and 59.99% and 59.40% and 60.55% and 59.10% and 58.29%
same,"Body composition, Lean, individual animal",HFD-fed ob/ob mice; [7],38.78% and 40.01% and 40.60% and 39.45% and 40.90% and 41.71% and 36.94% and 44.04%
same,"GHb, Pre","HFD-fed ob/ob mice; before dosing, mean ± SD, n=8",5.9 ± 0.4%
same,"Plasma ALT, Pre","HFD-fed ob/ob mice; before dosing, mean ± SD, n=8",378 ± 76 U·L^−1
same,"Plasma AST, Pre","HFD-fed ob/ob mice; before dosing, mean ± SD, n=8",333 ± 64 U·L^−1
same,"Plasma insulin, Pre","HFD-fed ob/ob mice; before dosing, mean ± SD, n=8",106 ± 30 ng/mL
same,"ΔGHb, AVE","HFD-fed ob/ob mice; change 34 days after repeated dosing, CpdB 30 mg/kg, pioglitazone 3 mg/kg oral once daily, mean",-0.45%
same,"ΔGHb, individual animal","HFD-fed ob/ob mice; change 34 days after repeated dosing, CpdB 30 mg/kg, pioglitazone 3 mg/kg, single animal values",0.60% and -0.50% and -0.20% and -1.10% and -0.60%
same,"Average EE, Dark, AVE",HFD-fed ob/ob mice; [8],0.55 kcal/h
same,"Average RQ, Dark, AVE",HFD-fed ob/ob mice; [8],0.87
same,"Average EE, Dark, individual animal",HFD-fed ob/ob mice; [9],0.61 kcal/h and 0.55 kcal/h and 0.54 kcal/h and 0.52 kcal/h and 0.53 kcal/h
same,"Average RQ, Dark, individual animal",HFD-fed ob/ob mice; [9],0.88 and 0.87 and 0.85 and 0.86
same,"GHb, Post",HFD-fed ob/ob mice; [10],5.4 ± 0.6 %
same,"Plasma ALT, Post",HFD-fed ob/ob mice; [10],632 ± 144 U·L^−1
same,"Plasma AST, Post",HFD-fed ob/ob mice; [10],492 ± 122 U·L^−1
same,"Plasma insulin, Post","HFD-fed ob/ob mice; day 34, CpdB 30 mg/kg, pioglitazone 3 mg/kg oral once daily, nonfasting, mean ± SD, n=8",109 ± 40 ng/mL
same,"Average EE, Light, AVE",HFD-fed ob/ob mice; [11],0.45 kcal/h
same,"Average RQ, Light, AVE",HFD-fed ob/ob mice; [11],0.83
same,"Average EE, Light, individual animal",HFD-fed ob/ob mice; [12],0.46 kcal/h and 0.42 kcal/h and 0.43 kcal/h and 0.44 kcal/h and 0.49 kcal/h and 0.48 kcal/h
same,"Average RQ, Light, individual animal",HFD-fed ob/ob mice; [12],0.82 and 0.83 and 0.84 and 0.80
